Measurements as given in US8778985B2, “Inhibiting amyloid-beta peptide/rage interaction at the blood-brain barrier” (The University of Rochester, priority 2006, dated 2014).

Assays:
APPsw+/− mice [1] = test: CBF response to brain activation (whisker stimulation), chronic FPS2 treatment of APPsw+/− mice; format: in vivo; details: 1 mg/kg per day i.p. for two months from 8 months of age
Protocol: (§1) (A) Percent increase in cerebral blood flow (CBF) in response to brain activation in mice treated with vehicle (open bar) or FPS2 (closed bar). (B-C) novel object location (B) and novel object recognition (C) expressed as percent exploratory preference in APPsw^+/− mice treated with vehicle (open bar) or FPS2 (closed bar). FPS2 (1 mg/kg per day) was intraperitoneally administered for two months beginning at the age of 8 months old mice. Values are means±s.e.m, n=5-6 per group.
(§2) APPsw^+/− mice were treated with FPS2 (1 mg/kg) or with vehicle daily by intraperitoneal injection for two months starting at 8 months old. At the end of the treatment period functional changes in cerebral blood flow (CBF) to brain activation, and memory tests were determined. Brain and plasma Aβ levels were also determined in FPS2 and vehicle treated mice. […]
(§3) Compounds were synthesized in parallel using semiautomated chemical reactions. […] Purity was assessed by reverse-phase gradient HPLC. […] After two months of treatment, (i) the cerebral blood flow response to brain activation (whisker stimulation) was measured and (ii) behavioral tests including operant learning, novel object location (NOL), and novel object recognition (NOR) were performed. After these functional tests, the mice were sacrificed and their brains analyzed for Aβ40, Aβ42, and amyloid levels. • CBF response to brain activation. […]

APPsw+/− mice [2] = test: Memory testing: novel object location and novel object recognition, chronic treatment of APPsw+/− mice; format: in vivo; details: 1 mg/kg per day i.p. for two months from 8 months of age
Protocol: as §1, §2, §3

SMILES: CC(CC(=O)NCCCN(C(=O)c1cc([N+](=O)[O-])cc([N+](=O)[O-])c1)c1ccccc1)CC(C)(C)C (stereo not drawn) [FPS2, 3,5-dinitro-N-phenyl-N-[3-[(3,5,5-trimethyl-1-oxohexyl)amino]propyl]-(9Cl)-benzamide]
- increase of CBF during brain activation compared to vehicle (APPsw+/− mice [1]): about 50%
- memory, novel object location (APPsw+/− mice [2]): significantly increased
- memory, novel object recognition (APPsw+/− mice [2]): significantly increased
